The values that follow come from patent publication US7056697B2, “FabK variant” (priority 2000, dated 2006).

The assay relates to FabK. Put plainly: FabK activity assay (crotonoyl-ACP reduction, NADH oxidation monitored at 340 nm). It is filed as biochemical, Streptococcus pneumoniae. The conditions noted are these: NH4+ at 100 mM; greatest activation. The method, then: FabK catalyses the reduction of enoyl-ACPs with the concommitant oxidation of NADH. Crotonoyl-ACP can be prepared as described below. The reduction of crotonoyl-ACP to butyryl-ACP can be monitored by following the change in absorbance at 340 nm as NADH is oxidised.
Assays were carried out in Costar 3696 half-area plates in a final assay volume of 150 ul on a Spectramax platereader. Substrates, NADH and crotonoyl ACP, were incubated with FabK enzyme in 100 mM N-[2-acetamido]-2 iminodiacetic acid (ADA), pH 6.5, 100 mM NH4Cl, 4% glycerol at 30° C. and the reaction monitored at 340 nm. This assaying can also be performed using crotonyl CoA, NADPH or an NADH analogue as a substrate.

Each structure is given as a SMILES string.

As for `N` [NH4^+], the “activation of the FabK reaction over the reaction with no monovalent cations” value was “about 300 fold”.
